The values below come from patent US20080014278A1, “METAL-CONTAINING FORMULATIONS AND METHODS OF USE” (priority 2006, published 2008).

For experiment [1], the system named is DNBS-induced colitis. The experiment is described as follows: DNBS-induced colitis in rat, colon histopathology. It is filed as in vivo, Sprague-Dawley rats. The procedure:
Histopathology: A piece of colonic tissue at 2-4 cm proximal to the anus was excised and fixed in 10% formalin and the sections were stained with hematoxylin and eosin. The remaining length of the colonic tissues was stored at −80° C. for subsequent biochemical assays. The histology slides were examined by a veterinary pathologist who was blinded to the treatment groups. The extent of microscopic mucosal damage of the colon was scored on scale of 0-5 as described with slight modification: 0=normal histological appearance; 1=histological damage limited to surface epithelium, mild infiltration of the submucosa; 2=focal ulceration and cell disruption limited to mucosa, abnormal appearance of colonic wall, mild infiltration of inflammatory cells; 3=focal, transmural inflammation and ulceration, with mild to moderate infiltration of inflammatory cells; 4=Extensive transmural ulceration and inflammation bordered by areas of normal mucosa, moderate infiltration of inflammatory cells; 5=extensive transmural ulceration and inflammation involving entire section from epithelium to serosa, severe infiltration of inflammatory cells.
Statistical Analysis: The results are expressed as the mean ±SE. […] The data were calculated with the aid of Instat Graph Pad Software. […]

Experiment [2] relates to DNBS-induced colitis. The experiment is described as follows: DNBS-induced colitis in rat, macroscopic observations (body weight, total IBD score). It counts as in vivo, Sprague-Dawley rats. To be noted: for total IBD score: 100 mg/kg, vs placebo.
Source text: Animals: Male Sprague-Dawley rats, weighing approximately 250-300 gm were purchased from Charles River Laboratories (Raleigh, N.C.). The animals were housed under standard conditions with free access to food and water. They were acclimatized for 2-3 days before commencing the experiments. The study protocol was approved by the Institutional Animal Care and Use Committees (IACUC).
Induction of ulcerative colitis: Colitis was produced according to published methods. Animals were anesthetized by intraperitoneal injection of 75 mg/kg of ketamine plus 5 mg/kg of xylazine. A single intracolonic injection of 120 mg/ml of dinitrobenzenesulfonic acid (DNBS) (Sigma Chemicals, St. Louis, Mo.) in 250 micro liter of 50% ethanol was administered through a Tom Cat catheter (Kendall Sovereign, Mansfield, Mass.) with a closed-end tip, connected to a 1 ml syringe and placed 7 cm proximal to the anus. Lubricant was applied to the tip of the catheter before injection, to protect from mucosal injury. After instillation of DNBS, 0.5 ml of air was insufflated and the catheter was removed.
Sulfasalazine (Sigma Chemicals, St Louis, Mo.), at a concentration of 120 mg/ml for intracolonic treatment and 30 mg/ml for oral treatment was used as the reference drug in all the experiments. Sulfasalazine was first dissolved in 0.1M NaOH at a concentration about 30-fold higher than the required final concentration, and then suspended in 1.5% PVA for oral dosing and 5.7% PVA for intracolonic dosing.
One group was not treated and served as no treatment group. Treatment began one day after administration of DNBS.
Macroscopic Observations: Body weight was recorded daily and the animals were examined for their physical appearance. After five days of treatment, animals were sacrificed. The colon was excised between the ileocecal junction and rectum, and opened longitudinally. After scoring of the consistency of the stool the colon was rinsed in normal saline, examined and thickness of the colonic wall and number and size of ulcers were scored. Stool consistency was graded on a scale of 0-3: 0=normal stool, well formed pellets rigid as normal; 1=loose stool, formed pellet with moisture, soft stool keeping in stool shape; 2=loose stool, stools that have abnormal form with much moisture, softer shapeless stool; 3=watery or bloody diarrhea.
Thickness of colonic wall was graded on a scale of 0-4: 0=normal, no thickness; 1=mild thickness in lower portion of the colon; 2=moderate thickness in localized area; 3=moderate thickness extending to the central portion of the colon; 4=severe thickness in the whole colon. Colonic ulceration was graded on a scale of 0-10: 0=no ulcers; 1=one small ulcer less than 2-3 mm; 2=one large ulcer more than 2-3 mm; 3=two large ulcerations more than 2-3 mm in diameter; 4=two or more sites of ulcerations extending 1 cm along the length; 5-10=when an area of ulceration extended more than 1 cm along the length of the colon, the score increases by 1 for each additional cm of involvement. The total IBD score, obtained by the sum of the scores of colonic ulcer, colon thickness and stool consistency for each animal, was calculated for each treatment group.
Statistical Analysis: The results are expressed as the mean ±SE. The statistical significance in the mean total IBD score, histopathological inflammation score, and the immunohistochemical staining of cytokines or MMP-9 was determined using Tukey-Kramer's multiple comparison tests following one-way analysis of variance (ANOVA). The data were calculated with the aid of Instat Graph Pad Software. Differences with a P value less than 0.05 were considered significant.
Methods: Colitis was induced in rats using DNBS as described in Example 25. Animals were treated intracolonically (250 μl of the test reagents) once a day for five days. […] Methods: Colitis was induced in rats using DNBS as described in Example 25. Animals were treated intracolonically (250 μl of the test reagents) once a day for five days.
In experiment [3] the test system is MMP-9. The experiment is described as follows: Immunohistochemistry of colonic tissue. It counts as in vivo, rat. To be noted: vs placebo and no treatment. The protocol:
(§1) Immunohistochemistry: A Universal Streptavidin/Biotin detection system (Thermo Shandon, Pittsburgh, Pa.) was used for immunohistochemical staining of formalin fixed, paraffin embedded biopsies of the colon. After dewaxing, and hydration, sections were treated with protein blocking agent to reduce non-specific binding of antibodies. The tissues were then incubated with rabbit anti-rat TNF-α, or mouse anti-rat IL-12 p70 antibodies (Biosource International, Inc, Camarillo, Calif.); rabbit anti-rat IL-1β (Serotec, Raleigh, N.C.) or rabbit anti-rat MMP-9 antibody (Chemicon International, Telecuma, Calif.) in 1% bovine serum albumin in phosphate buffered saline. Incubations with secondary antibodies, streptavidin/biotin, and chromogenic detection of peroxidase were performed according to the manufacturer's protocol. Sections were counterstained, dehydrated, mounted and examined. The intensity of the immuno-peroxidase staining was graded as described previously. Expression of cytokines was graded as: 0, no staining in the section; 1, less than 25% of the section; 2, 25-50% of the section; 3, 50-75% of the section; 4, >75% of the section with significant staining.

Experiment [4] has as its system IL-1β. As to the kind of experiment: Immunohistochemistry of colonic tissue. It counts as in vivo, rat. To be noted: five days oral treatment. The protocol:
as §1

For experiment [5], the system named is TNF-α. The experiment is described as follows: Immunohistochemistry of colonic tissue. It is filed as in vivo, rat. The note with it: five days oral treatment. The procedure: as §1

Turning to `O=C(O)c1cc(/N=N/c2ccc(S(=O)(=O)Nc3ccccn3)cc2)ccc1O` [sulfasalazine, salicylazosulfapyridine], in experiment [1] (oral 100 mg/kg, vs placebo and untreated), the histopathological inflammation score result was “significantly reduced the histopathological inflammation”. The “colon sections (hematoxylin and eosin)” value in experiment [1] (oral, 40 mg/kg nanocrystalline silver, 100 mg/kg sulfasalazine) is “healed mucosa and few residual inflammatory infiltrate”. In experiment [2] (DNBS colitis rats, intracolonic or oral treatment), the body weight entry is given as “started gaining body weight after one day of treatment”. In addition, the “total IBD score” value in experiment [2] (Example 27) and in experiment [2] (Example 28) was “significantly reduced total IBD score” each time. Besides, in experiment [3], the “expression of MMP-9 (immunohistochemical staining)” value is “significantly reduced the expression of MMP-9”. Also, the “expression of IL-1β (immunohistochemical staining)” value in experiment [4] is “significantly reduced the expression”. The “expression of TNF-α (immunohistochemical staining)” value in experiment [5] is recorded as “significantly reduced the expression”.
